{"source": "patent US20030130636A1", "about": "“System for improving skin health of absorbent article wearers” (priority 2001, published 2003)", "key": {"EPIDERM skin culture [1]": {"tested_on": "EPIDERM skin culture", "experiment": "MTT assay, viability of EPIDERM skin culture", "assay_type": "cell-based, human", "conditions": "0.4% (w/v) in PBS + protease insult, relative to control+control", "description": "The MTT dye is taken up by the cells. The reduction of the dye as a result of cellular metabolism can be used to measure the cytotoxicity of the test compositions. In order to confirm viability, inserts of the EPIDERM skin culture that have already been subjected to the test compositions and biological insults are removed from their media and are washed consecutively through immersion in three different beakers of PBS. Fresh PBS is used for each test composition or control being evaluated. The PBS is discarded onto paper towel. The EPIDERM skin culture inserts are then patted onto paper towel and placed into the wells of a 24 well plate containing 300 microliters of pre-warmed media. After all of the EPIDERM skin culture inserts are washed, they are transferred to new 24 well plates containing 300 microliters of the MTT reagent. […] The plates are incubated for 2-3 hours in a 37° C., 5% CO2 incubator. After incubation, the EPIDERM skin culture inserts are transferred to 24 well plates and are immersed in 2 milliliters of MTT extraction buffer. The extraction buffer extracts the MTT reagent from the cells. […] The optical density (OD) of the samples is measured at 570 nm using a spectrophotometer. […] This reading is subtracted from a background reading at 650 nm to improve data quality."}, "EPIDERM skin culture [2]": {"tested_on": "EPIDERM skin culture", "experiment": "EPIDERM skin culture study: IL-1α response to fecal protease (trypsin-chymotrypsin) insult", "assay_type": "cell-based, human", "conditions": "six hours, one value per set of experiments", "protocol": "In order to evaluate the efficacy of the skin care solutions of the invention, a human skin culture was selected to model the response of the human epidermis. EPIDERM skin culture is a cornified, air-interfaced human skin culture. EPIDERM skin culture has multiple layers of progressively differentiated keratinocytes resembling human epidermis. EPIDERM EPI-200 skin culture can be purchased from MatTek Corporation of Ashland, MA. Experiments using EPIDERM skin culture are conducted in six well plates. Each well contains one milliliter of pre-warmed media that is the same as the EPIDERM skin culture media. The plates are then incubated in a 37° C., 5% CO2 incubator for thirty minutes. […]\nAfter application of the insult solution, the well plates are incubated for six hours in the 37° C., 5% CO2 incubator. […] The response of the EPIDERM skin culture to the test compositions/control and the insult solution is determined by measuring the amount of interleukin-1 alpha (hereinafter “IL-1α”). Interleukin-1 alpha can be quantified using an Interleukin-1 alpha Quantikine Kit available from R&D Systems of Minneapolis, Minnesota. Interleukin-1 alpha measurements are converted to Loges for each of the treatments and the averages for each treatment are calculated. […]\n(Test composition+insult) result=the measured amount of IL-1α from treatment with a test composition+protease insult. […]"}}, "note": "“And” between values parts separate entries of the source, which are not always exact repeats. Equal entries are not always repeated."}
{"smiles": "O=C(O[C@@H]1Cc2c(O)cc(O)cc2O[C@@H]1c1cc(O)c(O)c(O)c1)c1cc(O)c(O)c(O)c1", "note": "[Epigallocatechin gallate]", "values": [{"measurement": "Viability (percentage)", "setting": "EPIDERM skin culture [1]", "result": "103% and 101% and 112%"}]}
{"smiles": "[Cl-].[Cl-].[Sr+2]", "note": "[Strontium Chloride]", "values": [{"measurement": "Mean Reduction of Interleukin-1 Alpha (percentage)", "setting": "EPIDERM skin culture [2]; 1% in PBS", "result": "0% (10)"}, {"measurement": "Mean Reduction of Interleukin-1 Alpha (percentage)", "setting": "EPIDERM skin culture [2]; 10% in PBS", "result": "15% (10)"}]}
